Laboratory results published in US7655431B2, “Compositions and methods based upon the kinase haspin” (The Brigham and Women's Hospital, Inc., priority 2004, dated 2010).
Several values for one entry are separate records, joined by “and”; a condition that tells them apart may be missing. Equal entries are not always repeated.

Legend:
[1] = test system: HeLa Tet-On cells transfected with vector alone; assay: proliferation and cell cycle of vector-transfected HeLa Tet-On cells with doxycycline; format: cell-based, human
Description: Using customized double stranded adapters, full length human haspin cDNA (amino acids 1-798, Higgins, Gene 267:55-69 (2001)) was ligated into the Hind III-Xba I sites of the expression vector pcDNA3 (Invitrogen) and, to generate myc-tagged haspin, cDNA encoding residues 2-798 was inserted into the pcDNA3-derived plasmid pCANmyc1. To generate a plasmid encoding EGFP-haspin, haspin cDNA encoding amino acids 2-798 is inserted into the Sac II-BamH I sites of pEGFP-C1 (Clontech). To generate inducible vectors, cDNA encoding myc-haspin from pCANmyc-haspin (Hind III-EcoR V) is blunt-ended and inserted into the Pvu II site of pTRE2/pur (BD Clontech) and Nhe I-Xba I fragments encoding EGFP-haspin or EGFP alone from pEGFP-haspin or pEGFP-C1, respectively are ligated into the Nhe I site of pTRE2pur. All constructs are verified by DNA sequencing. Transient transfection is carried out using Lipofectamine 2000 (Invitrogen). Stable transfection of HeLa Tet-On (BD Clontech) cells is carried out using Lipofectin with Plus Reagent (Invitrogen). After 24 h, cells are transferred to 96-well plates and incubated in medium containing 1 μg/ml puromycin and 100 μg/ml G418. Clones expressing myc-haspin or EGFP-haspin in the presence, but not absence, of 1 μg/ml doxycycline are selected by anti-myc immunoblotting or flow cytometric analysis of EGFP fluorescence respectively. […]

[2] = target: T1, 6His-haspin kinase (Homo sapiens, UniProt Q8TF76); assay: ELISA-based microtiter plate haspin kinase assay; format: biochemical; settings: 100 μM ATP, 10 mM MnCl2, 20 min 37° C.
T1 construct: insertion of a PCR product encoding residues 471-798 of human haspin into the PshA I site of the vector pET45b(+); 6His (N); made in house; host or cells: E. coli BL21
T1 sequence (Q8TF76 471-798): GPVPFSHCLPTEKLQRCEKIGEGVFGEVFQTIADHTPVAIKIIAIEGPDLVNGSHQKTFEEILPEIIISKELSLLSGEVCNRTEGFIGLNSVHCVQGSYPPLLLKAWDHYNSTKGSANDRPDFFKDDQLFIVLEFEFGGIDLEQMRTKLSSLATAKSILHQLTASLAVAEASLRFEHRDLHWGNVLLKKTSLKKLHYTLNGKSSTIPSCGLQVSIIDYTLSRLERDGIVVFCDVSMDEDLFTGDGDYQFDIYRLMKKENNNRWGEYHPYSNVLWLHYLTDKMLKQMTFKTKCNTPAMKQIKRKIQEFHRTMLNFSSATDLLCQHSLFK
Experimental: In these assays, H3-GST substrate protein (or H3-T3A-GST non-phosphorylable control) was immobilized on 96-well microtiter plates by incubation in PBS overnight at 4° C. Following washing and blocking with 1% BSA/TBS, 6His-haspin kinase was added to the wells in 50 μl total volume of Hepes-buffered saline (HBS)/100 μM ATP/10 mM MnCl2 and allowed to phosphorylate the immobilized substrate for 20 min at 37° C. After washing thrice with TBS/0.1% Tween-20, affinity-purified polyclonal anti-phospho-histone H3 (Thr-3) antibodies were added for 1 h at room temperature. After washing, antibody binding (i.e. phosphorylation) was detected using 1/2000 dilution of donkey anti-rabbit IgG-Horse Radish […] (HRP) conjugate (Jackson) followed by tetramethylbenzidine (TMB) color development (BD Biosciences). Measurement of A450 nm-A570 nm (to correct for well-to-well variation in background absorbance) was carried out after addition of H2SO4.

| Compound | cell number relative to uninduced control ([1]; after 8 days, two experiments, vector alone) | cell cycle progression ([1]; vector-transfected cells) | haspin kinase activity (phosphorylation of immobilized H3-GST) [2] |
| --- | --- | --- | --- |
| C[C@H]1c2cccc(O)c2C(=O)C2=C(O)[C@]3(O)C(=O)C(C(N)=O)=C(O)[C@@H](N(C)C)[C@@H]3[C@@H](O)[C@@H]21 [Doxycycline, doxycycline] | 104% and 115% | no effect | – |
| ARTKQTAR [H3(1-8)] | – | – | inhibition |
| O=C(O)CN(CCN(CC(=O)O)CC(=O)O)CC(=O)O [EDTA] | – | – | inhibition |
